From paper PMC9304322, “Targeting retinoic acid receptor alpha-corepressor interaction activates chaperone-mediated autophagy and protects against retinal degeneration” (Nature Communications, 2022)
Where “and” joins values, the source holds several entries; their conditions need not be identical. Equal values may be shown once.

What was measured:
[1] = tested on: NIH3T3 stably expressing the KFERQ-PS-Dendra; test: CMA activity, KFERQ-PS-Dendra fluorescent reporter in NIH3T3 mouse fibroblasts; format: cell-based; design: CMA activity (Fig. 1d), MEAN / CMA activity (Fig. 1e-g), mean / CMA activity (Fig. 1d), individual experiments / CMA activity, mean (Fig. S2c, second panel) / CMA activity, mean (Fig. S2c, first panel) / CMA activity, mean (Fig. S2c, third panel): unit not given here; conditions: for CMA activity (Fig. 1e-g), mean: n = 4
Description: (§1) Cells were transduced with lentivirus carrying the KFERQ-PS-Dendra reporter as before. Cells were photoactivated by exposure to a 3.5 mA (current constant) light emitting diode (LED: Norlux, 405 nm) for 3 min and then plated in glass-bottom 96 well plates. At the desired times, cells were fixed with 4% PFA and imaged using high-content microscopy (Operetta system, Perkin Elmer). Images were quantified using the manufacturer’s software in a minimum of 1,200 cells in 9 independent fields per well. […] This was particularly important in the case of primary human cells where the efficiency of transduction was ~65%. To avoid confounding effects for drug-induced changes in cell volume or adherence to the plate that could bring a fraction of the cells per field outside of focus, we set a threshold to count only […] that have at least 1/10 of the average number of […] detected in the untreated wells for each cell type (3–4 puncta/cell in the case of NIH3T3 and N2a cells and 5 puncta/cell in primary human fibroblasts).

[2] = tested on: neuroblastoma cell line N2a expressing the KFERQ-PS-Dendra reporter; test: CMA activity, KFERQ-PS-Dendra reporter in N2a cells; format: cell-based, mouse; design: CMA activity, mean (Fig. S2a): unit not given here
Description: as §1

CC(=O)Nc1ccc(C2=Nc3ccc(Cl)cc3OC2)cc1 [CA77]
CMA activity (Fig. 1d), MEAN ([1]; 20 μM of each compound, n = 3 independent experiments): 3.597
CMA activity (Fig. 1d), individual experiments ([1]; 20 μM of each compound, single experiments): 3.288 and 3.538 and 3.964
CMA activity (Fig. 1e-g), mean ([1]; 12h, concentration 0.02 (unit not given)): 6.451
CMA activity (Fig. 1e-g), mean ([1]; 12h, concentration 0.2): 6.218
CMA activity (Fig. 1e-g), mean ([1]; 12h, concentration 2): 6.38
CMA activity (Fig. 1e-g), mean ([1]; 12h, concentration 5): 31.6977
CMA activity (Fig. 1e-g), mean ([1]; 12h, concentration 10): 39.5886
CMA activity (Fig. 1e-g), mean ([1]; 12h, concentration 20): 52.9995
CMA activity (Fig. 1e-g), mean ([1]; 12h, concentration 30): 60.386
CMA activity (Fig. 1e-g), mean ([1]; 12h, concentration 40): 43.8824
CMA activity (Fig. 1e-g), mean ([1]; 12h, concentration 50): 33.4774
CMA activity (Fig. 1e-g), mean ([1]; 24h, concentration 0.02): 5.564
CMA activity (Fig. 1e-g), mean ([1]; 24h, concentration 0.2): 6.782
CMA activity (Fig. 1e-g), mean ([1]; 24h, concentration 2): 8.318
CMA activity (Fig. 1e-g), mean ([1]; 24h, concentration 5): 26.3626
CMA activity (Fig. 1e-g), mean ([1]; 24h, concentration 10): 39.2844
CMA activity (Fig. 1e-g), mean ([1]; 24h, concentration 20): 59.6703
CMA activity (Fig. 1e-g), mean ([1]; 24h, concentration 30): 82.4074
CMA activity (Fig. 1e-g), mean ([1]; 24h, concentration 40): 57.9474
CMA activity (Fig. 1e-g), mean ([1]; 24h, concentration 50): 59.2412
CMA activity (Fig. 1h-j), mean, untreated (0) = 1 ([1]; concentration 0.2, 12+12w (12 h, then 12 h after washing out)): 0.8003
CMA activity (Fig. 1h-j), mean, untreated (0) = 1 ([1]; concentration 0.2, 12h): 0.5989
CMA activity (Fig. 1h-j), mean, untreated (0) = 1 ([1]; concentration 0.2, 24h): 0.8798
CMA activity (Fig. 1h-j), mean, untreated (0) = 1 ([1]; concentration 2, 12+12w): 0.935
CMA activity (Fig. 1h-j), mean, untreated (0) = 1 ([1]; concentration 2, 12h): 0.6146
CMA activity (Fig. 1h-j), mean, untreated (0) = 1 ([1]; concentration 2, 24h): 1.079
CMA activity (Fig. 1h-j), mean, untreated (0) = 1 ([1]; concentration 5, 12+12w): 4.471
CMA activity (Fig. 1h-j), mean, untreated (0) = 1 ([1]; concentration 5, 12h): 3.053
CMA activity (Fig. 1h-j), mean, untreated (0) = 1 ([1]; concentration 5, 24h): 3.42
CMA activity (Fig. 1h-j), mean, untreated (0) = 1 ([1]; concentration 10, 12+12w): 4.902
CMA activity (Fig. 1h-j), mean, untreated (0) = 1 ([1]; concentration 10, 12h): 3.813
CMA activity (Fig. 1h-j), mean, untreated (0) = 1 ([1]; concentration 10, 24h): 5.096
CMA activity (Fig. 1h-j), mean, untreated (0) = 1 ([1]; concentration 20, 12+12w): 5.399
CMA activity (Fig. 1h-j), mean, untreated (0) = 1 ([1]; concentration 20, 12h): 5.105
CMA activity (Fig. 1h-j), mean, untreated (0) = 1 ([1]; concentration 20, 24h): 7.74
CMA activity (Fig. 1h-j), mean, untreated (0) = 1 ([1]; concentration 30, 12+12w): 7.708
CMA activity (Fig. 1h-j), mean, untreated (0) = 1 ([1]; concentration 30, 12h): 5.817
CMA activity (Fig. 1h-j), mean, untreated (0) = 1 ([1]; concentration 30, 24h): 10.6896
CMA activation compared with AR7 ([1]; fluorescent CMA reporter in mouse fibroblasts, basal and inducible CMA): > 40 % CMA of AR7
toxicity in cells ([1]; mouse fibroblasts): without noticeable toxicity
CMA activity, mean relative to concentration 0 = 1 (Fig. S2b) ([2]; 12+12w, concentration 0.2): 0.9934
CMA activity, mean relative to concentration 0 = 1 (Fig. S2b) ([2]; 12+12w, concentration 2): 0.9832
CMA activity, mean relative to concentration 0 = 1 (Fig. S2b) ([2]; 12+12w, concentration 5): 2.103
CMA activity, mean relative to concentration 0 = 1 (Fig. S2b) ([2]; 12+12w, concentration 10): 2.605
CMA activity, mean relative to concentration 0 = 1 (Fig. S2b) ([2]; 12+12w, concentration 20): 4.196
CMA activity, mean relative to concentration 0 = 1 (Fig. S2b) ([2]; 12+12w, concentration 30): 3.752
CMA activity, mean (Fig. S2a) ([2]; 12h, concentration 0.02): 2.724
CMA activity, mean (Fig. S2a) ([2]; 12h, concentration 0.2): 4.16
CMA activity, mean relative to concentration 0 = 1 (Fig. S2b) ([2]; 12h, concentration 0.2): 0.9543
CMA activity, mean (Fig. S2a) ([2]; 12h, concentration 2): 4.326
CMA activity, mean relative to concentration 0 = 1 (Fig. S2b) ([2]; 12h, concentration 2): 0.9922
CMA activity, mean (Fig. S2a) ([2]; 12h, concentration 5): 6.6688
CMA activity, mean relative to concentration 0 = 1 (Fig. S2b) ([2]; 12h, concentration 5): 1.5297
CMA activity, mean (Fig. S2a) ([2]; 12h, concentration 10): 9.952
CMA activity, mean relative to concentration 0 = 1 (Fig. S2b) ([2]; 12h, concentration 10): 2.283
CMA activity, mean (Fig. S2a) ([2]; 12h, concentration 20): 10.0764
CMA activity, mean relative to concentration 0 = 1 (Fig. S2b) ([2]; 12h, concentration 20): 2.311
CMA activity, mean (Fig. S2a) ([2]; 12h, concentration 30): 18.9972
CMA activity, mean (Fig. S2a) ([2]; 12h, concentration 40): 10.5987
CMA activity, mean (Fig. S2a) ([2]; 12h, concentration 50): 9.368
CMA activity, mean (Fig. S2a) ([2]; 12h, concentration 60): 2.016
CMA activity, mean (Fig. S2a) ([2]; 24h, concentration 0.02): 2.2722
CMA activity, mean (Fig. S2a) ([2]; 24h, concentration 0.2): 4.676
CMA activity, mean relative to concentration 0 = 1 (Fig. S2b) ([2]; 24h, concentration 0.2): 0.9787
CMA activity, mean (Fig. S2a) ([2]; 24h, concentration 2): 4.697
CMA activity, mean relative to concentration 0 = 1 (Fig. S2b) ([2]; 24h, concentration 2): 0.9831
CMA activity, mean (Fig. S2a) ([2]; 24h, concentration 5): 13.5914
CMA activity, mean relative to concentration 0 = 1 (Fig. S2b) ([2]; 24h, concentration 5): 2.845
CMA activity, mean (Fig. S2a) ([2]; 24h, concentration 10): 13.8573
CMA activity, mean relative to concentration 0 = 1 (Fig. S2b) ([2]; 24h, concentration 10): 2.901
CMA activity, mean (Fig. S2a) ([2]; 24h, concentration 20): 21.7668
CMA activity, mean relative to concentration 0 = 1 (Fig. S2b) ([2]; 24h, concentration 20): 4.556
CMA activity, mean (Fig. S2a) ([2]; 24h, concentration 30): 18.5853
CMA activity, mean relative to concentration 0 = 1 (Fig. S2b) ([2]; 24h, concentration 30): 3.89
CMA activity, mean (Fig. S2a) ([2]; 24h, concentration 40): 10.9146
CMA activity, mean (Fig. S2a) ([2]; 24h, concentration 50): 9.363
CMA activity, mean (Fig. S2a) ([2]; 24h, concentration 60): 0.7571
CMA activation in neuron-related mouse cells ([2]; in words): efficiently activated CMA
